# According to ChEMBL document CHEMBL3507680, “University of Dundee, Gates Library screen for HepG2 cell viability”:
# Assay: Human HepG2 cell viability assay in 384 well format
# Type: toxicity, cell-based
# Set-up: dose 125 nL, time 70.5 hour; concentration not given beside the values
# Conditions: HepG2 cells, read-out: Inhibition
row,Compound,cytotoxicity at 70.5 h
1,CC(C)CC(C)(CNC(=O)c1cnccn1)NC(=O)c1cnccn1 (configuration not stated),-0.237%
2,CC(=O)N1CCC[C@@H](NCc2cccc(F)c2)[C@@H]1c1ccc(C)s1,-6.03%
3,CN(C)c1cc(C2CCCN(S(=O)(=O)C3CCCC3)C2)ccn1 (configuration not stated),-7.46%
4,CCS(=O)(=O)CC(=O)N1CCCC(c2noc(C(C)C)n2)C1 (configuration not stated),8.9%
5,Cc1csc(N2CCCN(C(=O)c3c(C)oc(C)c3C)CC2)n1,-1.91%
6,COC(=O)CNC(=O)Cn1ccc2ccc(F)cc21,-3.86%
7,CC(C)(C)C(=O)N1CCC(c2cnc(-c3cn[nH]c3)cn2)CC1,-4.2%
8,COCCn1cc(CC(=O)Nc2cc(C)n(C)n2)c2ccccc21,-5.22%
9,COCCC1CCN([C@@H]2c3ccccc3C3(CCNCC3)[C@H]2O)CC1,-3.9%
10,COc1ccc(OC)c(C2CC(=O)Nc3nc(N4CCOCC4)sc32)c1 (configuration not stated),4.11%
11,O=C(CCN1CCC(C(=O)c2cc(F)ccc2F)CC1)NC1CCCC1,-17.8%
12,COc1ccc2c(c1)CCCC2CC(=O)O (configuration not stated),-19.3%
13,CC(=O)N1Cc2ccccc2CC1C(=O)Nc1ccc(C)cn1 (configuration not stated),-15.7%
14,Cc1ccsc1C(O)CNC(=O)Cc1ccc(F)cc1 (configuration not stated),25%
15,COc1ccc(-c2noc(CN3CCN(c4cnccn4)CC3)n2)cc1,-16.7%
16,Cn1cc(CN2CCCC(n3c(=O)oc4ccccc43)C2)cn1 (configuration not stated),-0.583%
17,CCC(C)NS(=O)(=O)Cc1cccc(NC(=O)c2cc[nH]c2C)c1 (configuration not stated),-5.4%
18,CCN(CC)C(=O)[C@@H]1C[C@@H](N)CN1C(=O)c1cc2c([nH]c1=O)CCC2,-10.8%
19,O=C(COc1ccc(Br)cc1F)Nc1cn[nH]c1,15.8%
20,O=C(Nc1cnc2n1CCCC2)c1cccc(NC(=O)C2CCCC2)c1,-8.35%
21,COc1ccc2nc(O)c(CN(C)Cc3ncc[nH]3)cc2c1,1.48%
22,c1ccc(NCc2cn3c(n2)CN(Cc2nccs2)CC3)nc1,-0.336%
23,CC(=O)c1cc(CN2C[C@@H](CN3CCC(O)CC3)[C@@H](CO)C2)n(C)c1,0.0676%

row,Compound,cytotoxicity at 70.5 h
1,CCCC1(CO)CCCN(C(=O)CCCn2nc(C)cc2C)C1 (configuration not stated),-0.556%
2,CN(C)C(=O)c1nc2c(s1)CCN(C(=O)c1ccc(Cl)cc1)CC2,-2.44%
3,O=C(CN1CCOCS1(=O)=O)NCCc1ccc(Cl)cc1,-9.99%
4,Fc1ccc(CN2CCO[C@H]3[C@H](OCCN4CCCC4)CC[C@@H]32)cc1,-5.14%
5,O=C(CN1CCCCC1Cn1cncn1)NC1CCN(C2CC2)CC1 (configuration not stated),-1.8%
6,CCN1C[C@@H]2[C@@H](OC)CCN(C(=O)Cc3ccsc3)[C@@H]2C1,-5.4%
7,COc1ccccc1C(C)Nc1ncc(C(N)=O)cc1Cl (configuration not stated),-9.04%
8,CC(CNC(=O)CCn1cncn1)N1CCc2ccccc21 (configuration not stated),-1.72%
9,Cc1ccc(C)c2c(C)c(C(=O)NCC[S+](C)[O-])[nH]c12 (configuration not stated),-4.15%
10,CC(C)c1noc(C(C)N2CCN(CCO)CC2)n1 (configuration not stated),-1.66%
11,COC[C@@]12CCO[C@@H]1CCN(Cc1ccccc1F)C2,-9.38%
12,CN1C(=O)CC[C@@H]2[C@H]1CCN2S(=O)(=O)c1cccs1,-1.06%
13,Cc1cccnc1N1CCN(Cc2cc(O)c3cccc(F)c3n2)CC1,-0.745%
14,CC(C)CN(C)c1ccc(C(=O)N2CCCC2c2cnn(C)c2)cn1 (configuration not stated),21.8%
15,Clc1ccc(OCCCN2CCOC(Cn3cncn3)C2)cc1 (configuration not stated),24.6%
16,CCCc1cc(=O)[nH]c2nnc(SCC(=O)NC(C)(C)C)n12,-8.6%
17,COCCS(=O)(=O)N1CCN(c2cccc(O)c2)CC1,-2.61%
18,Fc1ccc(C(NCc2nnc(C3CC3)o2)C2CCC2)cc1 (configuration not stated),-4.6%
19,O=C1CCCN1CCc1noc(-c2ccsc2)n1,-7.91%
20,O=C(Cc1ccc(F)cc1)N1CCn2c(Cn3cncn3)cnc2C1,-1.65%
21,Cc1cnn(C2CCCN(C(=O)c3sccc3-n3cnnn3)C2)c1 (configuration not stated),-2.63%
22,Cc1ccc(CN2CCN(CC(=O)N(C)C)[C@@H]3CS(=O)(=O)C[C@@H]32)cc1C,-3.23%
23,CNC(=O)c1ccc(OC)c(NCc2noc(-c3cccs3)n2)c1,-16.8%

row,Compound,cytotoxicity at 70.5 h
1,Cn1nnc2c1C(COCC1CC1)CN(C(=O)CC1=CCCCC1)C2 (configuration not stated),-2%
2,OCC1CCCN1c1cc(N2CCN(c3ccccn3)CC2)ncn1 (configuration not stated),-9.58%
3,COCCC(=O)N1CCC2(CCN(Cc3ccc(C)cc3)CC2)C1,-7.89%
4,CC(NCC(F)(F)F)c1ccc(S(C)(=O)=O)c(F)c1 (configuration not stated),12.5%
5,O=C(c1ccoc1)N1CCC2(CC1)COC(COCc1ccccn1)C2 (configuration not stated),10.2%
6,CC(=O)Nc1ccc(C(=O)N(C)Cc2cccc(F)c2)s1,-105%
7,O=C(c1cnc(Cc2c(Cl)cccc2Cl)nc1O)N1CCNCC1,8.34%
8,Cc1ccc(-c2cc(N)c(=O)n(C(C)C(=O)NCC3CCCCC3)n2)s1 (configuration not stated),18%
9,CCn1cnnc1CN(C)Cc1c[nH]nc1-c1ccc(F)cc1,-1.22%
10,Cc1cnn(CC2CN(c3nnc(C)c(C)c3C#N)CCO2)c1 (configuration not stated),-3.86%
11,Cc1csc2nc3n(c(=O)c12)CCN(C(=O)c1ccncc1)CC3,-7.78%
12,COc1c(CNC2CCc3cc(F)ccc32)c(C)nn1C (configuration not stated),-15.1%
13,CNC(=O)Cn1cc(Nc2cccc(F)c2C#N)cn1,-32.8%
14,CNC(=O)[C@H]1C[C@@H]2CN(Cc3csc(C)n3)C[C@@H]2N1S(C)(=O)=O,27.8%
15,COc1cc(F)ccc1-c1cc(N)ccn1,-0.436%
16,Cc1cnc(C(=O)N2CCCC3(CCN(c4cnn(C)c4)C3=O)C2)cn1 (configuration not stated),-3.83%
17,CN(C)c1ncccc1NC(=O)C1CN(Cc2ccccc2)CCO1 (configuration not stated),-2.14%
18,Cc1sc(Br)cc1S(=O)(=O)NCCN,-7.86%
19,CCCn1nccc1C(=O)Nc1ncc(C)s1,-11.3%
20,CCC[C@@H]1CN(Cc2ccccc2C#N)C[C@H]1NC(C)=O,-1.98%
21,O=C(O)c1cc(-n2cc3c(n2)CCC3)cc(S(=O)(=O)NC2CCCC2)c1,26.3%
22,O=S1(=O)CCC(N(CCc2ccc3c(c2)CCO3)C2CC2)C1 (configuration not stated),-1.96%
23,CCN(CC)Cc1cn2c(n1)CN(C1CCOC1)CC2 (configuration not stated),-4.42%

row,Compound,cytotoxicity at 70.5 h
1,CC(C)N1CC[C@H]2[C@H](C[C@@H](Cn3cccn3)N2c2nccs2)C1,-4.28%
2,CSCCN1C(=O)CC(C)(c2ccc(Br)cc2)C1=O (configuration not stated),-5.43%
3,Cc1nccn1[C@@H]1CC[C@@H](N(C)S(=O)(=O)c2ccccc2F)[C@H]1O,-3.2%
4,COCCn1c(=O)n(Cc2cccc(F)c2F)c2cc(C(=O)O)ccc21,18.8%
5,CCc1nnc(CN(C)c2cc(C)nc3c(C)c(C)nn23)o1,-2.11%
6,CCN(Cc1ccncc1)CC1(O)CCN(C(=O)c2ccccc2C)C1 (configuration not stated),-2.28%
7,Cc1cc(C(=O)N2CCCC(c3nccn3Cc3ccncc3)C2)no1 (configuration not stated),-12.9%
8,NC(=O)CCNC(=O)NCC1(c2ccccc2Cl)CCC1,-2.77%
9,CCc1nc(CCNC(=O)NC2CCN(C(C)C)C2)sc1C (configuration not stated),-3.64%
10,COc1ccccc1-c1cc(C(=O)N2CCCC2)c2cnn(C)c2n1,-5.55%
11,COc1ccccc1OCc1cc(C(=O)N2CCOCC2CO)n[nH]1 (configuration not stated),-5.23%
12,N#Cc1cccc(CN2CCC3(CC(C(=O)NCC4CC4)=NO3)C2)c1 (configuration not stated),-4.48%
13,COc1cccc(CN2CCN(CC(C)C)C(=O)C2C)c1O (configuration not stated),0.611%
14,c1cncc(CN(Cc2ccsc2)Cc2ccc(C3CCCCO3)o2)c1 (configuration not stated),6.4%
15,O=C([C@H]1COC[C@H]2CN(c3ccncn3)C[C@H]21)N1CCCC1,13.9%
16,CC(C)c1ncc2c(n1)CN(Cc1ccc(C(N)=O)cc1)CC2,24.1%
17,CCC(C)c1ccc(NC(=O)C2CCN(C(=O)COC)CC2)cc1 (configuration not stated),-6.71%
18,CO[C@H]1COCCN(C(=O)c2ccc(C(F)(F)F)cc2)C1,-4.56%
19,O=C(CCCN1CCOC1=O)Nc1cnn(-c2ccccc2Cl)c1,-5.24%
20,CCOc1ccccc1C1=CCN(C(=O)C2CCN(C)C(=O)C2)CC1 (configuration not stated),16.3%
21,Cc1cccc(C)c1CCNC(=O)N1CCCC2(C1)OCCO2,-5.85%
22,COc1nccnc1N1C[C@@H]2CC[C@H](C1)N(CC=C(C)C)C2=O,-20.8%
23,CCN(CC)S(=O)(=O)CC(=O)N1CCc2ccc(C)cc21,-7.29%

row,Compound,cytotoxicity at 70.5 h
1,CC(NC(=O)NCc1c(F)cccc1Cl)(C(=O)O)c1ccco1 (configuration not stated),-8.24%
2,Cc1[nH]/c(=N\C(=O)c2csc(NC3CCCC3)n2)sc1C,31.2%
3,CCn1ccnc1CN1CCC(=O)N(CC2CC2)C(C(C)C)C1 (configuration not stated),31.2%
4,COc1cc(CN2CCn3c(CO)nnc3C2)ccc1OC(C)C,34.7%
5,Cc1nc(CO[C@@H]2CN(Cc3nccs3)[C@@H]3COC[C@@H]32)cs1,-6.11%
6,CCOC(=O)NC1CCCN(c2cncc(Br)c2)C1 (configuration not stated),0.767%
7,CCCN1CCC(NC(=O)c2ccnc(SCC)c2)CC1,-0.521%
8,Cc1noc(C)c1CN(C)Cc1csc(-c2ccccc2F)n1,-3.72%
9,Cc1oc(C)c(C(=O)NCc2ccccc2CN(C)C)c1C,16.8%
10,Cc1cc(C)n(CC2CCCCN2C(=O)c2ccc3nncn3c2)n1 (configuration not stated),-2.04%
11,CC(CN1CCOCC1)NC(=O)c1cc(Cl)c2c(c1)OCO2 (configuration not stated),2.56%
12,CCC(CNC(=O)c1ccccc1OC)N1CCc2ccccc2C1 (configuration not stated),7.61%
13,CC(C)Cc1nc(C[S+]([O-])CC(=O)NCc2ccccc2)no1 (configuration not stated),-5.17%
14,O=C(N1CCC(Oc2ccncc2)C1)C1(c2cccc(F)c2)CC1 (configuration not stated),-1.35%
15,CCNC(c1ccc(Br)cc1)c1cccnc1 (configuration not stated),1.53%
16,CCn1nc(C)c(CN(CCOC)C(=O)c2ccccc2N(C)C)c1C,-2.9%
17,Cn1cc(-c2nc(C3CCN(CC4CC4)CC3)cc3c2ncn3C)cn1,-1.1%
18,N#Cc1cccc(OCc2ccoc2C(=O)N2CCCCCC2)c1,-2.71%
19,O=C(NCc1ccccc1CN1CCC(O)CC1)Nc1ccccc1,-0.116%
20,CCOc1cccc(NC(=O)c2cc[nH]n2)n1,-3.18%
